Test results published in patent US20160158200A1, “Combinations of Hepatitis C Virus Inhibitors” (priority 2013, published 2016).

Tests used:
[1] = test system: HCV genotype 1a L31V variant with leucine 31 changed to valine in the NS5A protein; experiment: microbe, parasite or virus in culture; format: cell-based; details: genotype 1a L31V replicon; test compound titrated with compound N47 fixed at 200 nM versus singly
[2] = test system: HCV genotype 1a Y93H variant with tyrosine 93 changed to histidine in the NS5A protein; experiment: microbe, parasite or virus in culture; format: cell-based; details: genotype 1a Y93H replicon; test compound titrated with compound N47 fixed at 200 nM versus singly
Summary of the method: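 In an HCV genotype 1a replicon cell-based assay carrying the NS5A Y93H substitution, BMS-790052 was tested alone and in combination with a fixed amount of a second test compound. The combinations were examined for synergistic activity.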

Structure (SMILES) | Fold-Synergistic G-1a (L31V) [1] | Fold-Synergistic G-1a (Y93H) [2]
O=C(Nc1ccc(/C=C/c2ccc(NC(=O)[C@@H]3CCCN3C(=O)Cc3ccccc3)cc2)cc1)[C@@H]1CCCN1C(=O)Cc1ccccc1 | <10 fold | <10 fold
O=C(OCc1ccccc1)N1C[C@H](O)C[C@H]1c1nc2cc(C#Cc3ccc4[nH]c([C@@H]5C[C@@H](O)CN5C(=O)OCc5ccccc5)nc4c3)ccc2[nH]1 | <10 fold | <10 fold
O=C(Nc1ccc(/C=C/c2ccc(NC(=O)[C@@H]3CCCCN3C(=O)OCc3ccccc3)cc2)cc1)[C@@H]1CCCCN1C(=O)OCc1ccccc1 | <10 fold | <10 fold
O=C(Nc1ccc(/C=C/c2ccc(NC(=O)[C@@H]3COCN3C(=O)OCc3ccccc3)cc2)cc1)[C@@H]1COCN1C(=O)OCc1ccccc1 | <10 fold | <10 fold
O=C(c1nc(Cl)cc2ccccc12)N1CCC[C@H]1c1nc2ccc(C#Cc3ccc4nc([C@@H]5CCCN5C(=O)c5nc(Cl)cc6ccccc56)[nH]c4c3)cc2[nH]1 | <10 fold | <10 fold
O=C(Nc1ccc(C#Cc2ccc(NC(=O)[C@@H]3CCCN3C(=O)CC3CC3)cc2)cc1)[C@@H]1CCCN1C(=O)CC1CC1 | <10 fold | <10 fold
O=C1[C@@H]2CCCN2C(=O)C(c2ccccc2)N1c1ccc(/C=C/c2ccc(N3C(=O)[C@@H]4CCCN4C(=O)C3c3ccccc3)cc2)cc1 (stereo partly shown) | <10 fold | <10 fold
CN(C)[C@@H](C(=O)N1CCC[C@H]1C(=O)Nc1ccc(C#Cc2ccc(NC(=O)[C@@H]3CCCN3C(=O)[C@@H](c3ccccc3)N(C)C)cc2)cc1)c1ccccc1 | <10 fold | <10 fold
C[C@H](NC(=O)[C@@H](O)c1ccccc1)C(=O)Nc1ccc(-c2cnc(-c3ccc(NC(=O)[C@H](C)NC(=O)[C@@H](O)c4ccccc4)cc3)o2)cc1 | <10 fold | <10 fold
O=C1C(c2ccccc2)N(c2ccc(-c3cnc(-c4ccc(N5C(=O)C6CCCN6C(=O)C5c5ccccc5)cc4)o3)cc2)C(=O)C2CCCN12 (stereo not shown) | <10 fold | <10 fold
O=C(Nc1ccc(C#Cc2ccc(NC(=O)[C@@H]3CCCN3C(=O)Cc3ccccc3)cn2)nc1)[C@@H]1CCCN1C(=O)Cc1ccccc1 | <10 fold | <10 fold
C[C@](O)(C(=O)N1CCC[C@H]1c1nc2ccc(-c3ccc(-c4ccc5nc([C@@H]6CCCN6C(=O)[C@](C)(O)c6ccccc6)[nH]c5c4)o3)cc2[nH]1)c1ccccc1 | <10 fold | <10 fold
CN1CCN(C(C(=O)N2CCC[C@H]2C(=O)Nc2ccc(C#Cc3ccc(NC(=O)[C@@H]4CCCN4C(=O)C(c4ccccc4)N4CCN(C)CC4)cc3)cc2)c2ccccc2)CC1 (stereo partly shown) | <10 fold | <10 fold
CN1CCN(C(C(=O)N2CCC[C@H]2C(=O)Nc2ccc(-c3cnc(-c4ccc(NC(=O)[C@@H]5CCCN5C(=O)C(c5ccccc5)N5CCN(C)CC5)cc4)o3)cc2)c2ccccc2)CC1 (stereo partly shown) | <10 fold | <10 fold
COc1cccc2c(C(=O)N3CCC[C@H]3C(=O)Nc3ccc(-c4ncc(-c5ccc6nc([C@@H]7CCCN7C(=O)c7nc(Cl)cc8c(OC)cccc78)[nH]c6c5)o4)cc3)nc(Cl)cc12 | <10 fold | <10 fold
CN(C)[C@@H](C(=O)N1CCC[C@H]1C(=O)Nc1cccc(-c2ncc(-c3ccc4nc([C@@H]5CCCN5C(=O)[C@@H](c5ccccc5)N(C)C)[nH]c4c3)o2)c1)c1ccccc1 | <10 fold | <10 fold
O=C(Cc1ccccc1)N1CCC[C@H]1c1nc2ccc(-c3cnc([C@@H]4CCCN4C(=O)Cc4ccccc4)o3)cc2[nH]1 | <10 fold | <10 fold
CN(C)[C@@H](C(=O)Nc1cccc(-c2ncc(-c3ccc4nc([C@@H]5CCCN5C(=O)[C@@H](c5ccccc5)N(C)C)[nH]c4c3)o2)c1)c1ccccc1 | <10 fold | <10 fold
CN(C)[C@@H](C(=O)N1CCC[C@H]1c1nc2ccc(-c3ncc([C@@H]4CCCN4C(=O)[C@@H](c4ccccc4)N(C)C)o3)cc2[nH]1)c1ccccc1 | <10 fold | <10 fold

Structure (SMILES) | Fold-Synergistic G-1a (L31V) [1] | Fold-Synergistic G-1a (Y93H) [2]
CN(C)C(C(=O)N1CCC[C@H]1c1nc(-c2ccc3nc([C@@H]4CCCN4C(=O)C(c4ccccc4)N(C)C)[nH]c3c2)c[nH]1)c1ccccc1 (stereo partly shown) | <10 fold | <10 fold
Cc1nc2cccc(-c3ncc(-c4ccc5nc([C@@H]6CCCN6C(=O)[C@@H](c6ccccc6)N(C)C)[nH]c5c4)o3)c2[nH]1 | <10 fold | <10 fold
COc1cccc2c(C(=O)N3CCC[C@H]3c3nc4ccc(-c5cnc(-c6cccc(O)c6)o5)cc4[nH]3)nc(Cl)cc12 | <10 fold | <10 fold
Cc1nc2ccc(-c3cnc(-c4ccc5nc([C@@H]6CCCN6C(=O)[C@@H](c6ccccc6)N(C)C)[nH]c5c4)o3)cc2[nH]1 | <10 fold | <10 fold
COC(=O)N[C@@H](C(=O)N1CCC[C@H]1c1nc2ccc(C(=O)c3ccc4nc([C@@H]5CCCN5C(=O)[C@H](NC(=O)OC)c5ccccc5)[nH]c4c3)cc2[nH]1)c1ccccc1 | <10 fold | <10 fold
COC(=O)N[C@@H](C(=O)N1CCC[C@H]1c1nc2ccc(-c3ncc(-c4ccc(N5CCOCC5)cc4)o3)cc2[nH]1)c1ccccc1 | <10 fold | <10 fold
COC(=O)N[C@@H](C(=O)N1CCC[C@H]1c1ncc(-c2ccc(-c3ccc(-c4cnc([C@@H]5CCCN5C(=O)[C@H](NC(=O)OC)c5ccccc5)[nH]4)cc3)cc2)[nH]1)c1ccccc1 | >10 fold | <10 fold
CN(C)[C@@H](C(=O)N1CCC[C@H]1c1nc2ccc(-c3ccc4nc([C@@H]5CCCN5C(=O)[C@@H](c5ccccc5)N(C)C)[nH]c4c3)cc2[nH]1)c1ccccc1 | <10 fold | <10 fold
COC(=O)N[C@H](C(=O)N1[C@@H]2CCC[C@@H]2C[C@H]1c1nc(-c2ccc(-c3ccc(-c4c[nH]c([C@@H]5C[C@H]6CCC[C@H]6N5C(=O)[C@@H](NC(=O)OC)C(C)C)n4)cc3)cc2)c[nH]1)C(C)C | >100 fold | >100 fold
COC(=O)N[C@H](C(=O)N1[C@@H]2C[C@@H]2C[C@H]1c1nc(-c2ccc3oc(-c4ccc(-c5cnc([C@@H]6C[C@H]7C[C@H]7N6C(=O)[C@@H](NC(=O)OC)C6CCOCC6)[nH]5)cc4)cc3c2)c[nH]1)C1CCOCC1 | <10 fold | <10 fold
COC(=O)N[C@H](C(=O)N1CCOC[C@H]1c1nc(-c2ccc(-c3ccc4cc(-c5c[nH]c([C@@H]6COCCN6C(=O)[C@@H](NC(=O)OC)C(C)C)n5)ccc4c3)cc2)c[nH]1)C(C)C | >10 fold | >10 fold
COC(=O)N[C@H](C(=O)N1CCCC[C@H]1c1nc(-c2ccc(-c3ccc4cc(-c5c[nH]c([C@@H]6CCCCN6C(=O)[C@@H](NC(=O)OC)C(C)C)n5)ccc4c3)cc2)c[nH]1)C(C)C | >10 fold | <10 fold
COC(=O)N[C@H](C(=O)N1[C@H](C)CC[C@H]1c1nc(-c2ccc(-c3ccc4cc(-c5c[nH]c([C@@H]6CC[C@@H](C)N6C(=O)[C@@H](NC(=O)OC)C(C)C)n5)ccc4c3)cc2)c[nH]1)C(C)C | >10 fold | <10 fold
COC(=O)N[C@H](C(=O)N1CCC[C@H]1C(=O)NC1Cc2ccc(-c3ccc4c(c3)CC(NC(=O)[C@@H]3CCCN3C(=O)[C@@H](NC(=O)OC)C(C)C)C4)cc2C1)C(C)C (stereo partly shown) | >10 fold | >10 fold
COC(=O)N[C@H](C(=O)N1[C@@H](C)CC[C@H]1c1ncc(-c2ccc3c(c2)CCc2cc(-c4cnc([C@@H]5CC[C@H](C)N5C(=O)[C@@H](NC(=O)OC)C(C)C)[nH]4)ccc2-3)[nH]1)C(C)C | >100 fold | >100 fold
COC(=O)N[C@H](C(=O)N1[C@@H]2C[C@@H]2C[C@H]1c1cnc(-c2ccc(C#Cc3ccc(-c4ncc([C@@H]5C[C@H]6C[C@H]6N5C(=O)[C@@H](NC(=O)OC)C(C)C)[nH]4)cc3)cc2)[nH]1)C(C)C | <10 fold | >10 fold
COC(=O)N[C@H](C(=O)N1[C@@H](C)CC[C@H]1c1ncc(-c2ccc3c(c2)Cc2cc(-c4cnc([C@@H]5CC[C@H](C)N5C(=O)[C@@H](NC(=O)OC)C(C)C)[nH]4)ccc2-3)[nH]1)C(C)C | >100 fold | >100 fold
COC(=O)NC(C(=O)N1[C@@H](C)CC[C@H]1c1ncc(-c2ccc(-c3cnc(-c4cnc([C@@H]5CC[C@H](C)N5C(=O)[C@@H](NC(=O)OC)[C@H]5C[C@@H](C)O[C@@H](C)C5)[nH]4)c4cccn34)cc2)[nH]1)[C@H]1C[C@@H](C)O[C@@H](C)C1 (stereo partly shown) | >10 fold | >100 fold
COC(=O)N[C@H](C(=O)N1CC2(CC2)C[C@H]1c1nc(-c2ccc3c(c2)C(F)(F)c2cc(-c4ccc5nc([C@@H]6[C@H]7CC[C@H](C7)N6C(=O)[C@@H](NC(=O)OC)C(C)C)[nH]c5c4)ccc2-3)c[nH]1)C(C)C | >10 fold | >100 fold
